Results: ChEMBL document CHEMBL1156829 (Proc Natl Acad Sci U S A, 2008)

Assays:
Plasmodium falciparum [1] = test: NOVARTIS: Inhibition of Plasmodium falciparum 3D7 (drug-susceptible) proliferation in erythrocyte-based infection assay; format: functional, organism-based; conditions: Plasmodium falciparum, 3D7
Plasmodium falciparum [2] = test: NOVARTIS: Inhibition of Plasmodium falciparum W2 (drug-resistant) proliferation in erythrocyte-based infection assay; format: functional, organism-based; conditions: Plasmodium falciparum, W2; read-out: EC50
[3] = NOVARTIS: Cytotoxicity against human hepatocellular carcinoma cell line (Huh7); format: toxicity, cell-based, Huh-7; conditions: Huh7 cells (hepatocellular carcinoma cell line)

Row | Structure (SMILES) | EC50 (Plasmodium falciparum [1]) [nM] | EC50 (Plasmodium falciparum [2]) [nM] | CC50 [3] [nM]
1 | O=C1c2cccc(N3CCCC(C(=O)N4CCCCC4c4cccnc4)C3)c2C(=O)N1Cc1ccc(C(F)(F)F)cc1 (centres undefined) | 3410 | 1530 | > 100000
2 | COc1ccc(CCNc2nc(NCCCN(C)C)ncc2C(=O)NCc2ccccc2)cc1OC | 605 | > 1190 | > 10000
3 | CN(C)c1ccc(C=NNc2ncnc3nc[nH]c23)cc1 | 167 | 138 | 11000
4 | Cc1cccc(CN2CCC(CNC(=S)Nc3ccc4nc(N5CCN(C)CC5)cc(C)c4c3)CC2)c1 | > 9900 | 6760 | > 100000
5 | NC(=O)C1CCCN(C(=O)COC(c2ccccc2)c2cccnc2Cl)C1 (centres undefined) | 4810 | > 12500 | 45600
6 | Oc1nc(-c2ccccn2)nc(C(F)(F)F)c1Br | 490 | < 25.6 | > 8270
7 | O=C(Nc1ccccc1)c1ccccc1OCC(O)Cn1c2ccccc2c2ccccc21 (centres undefined) | 282 | 267 | > 100000
8 | Cc1ccc2c(C)nc(Nc3nc(C)cc(-c4ccccc4)n3)nc2c1 | 975 | 569 | > 100000
9 | CCc1cc2c(Nc3ccncc3)ncnc2s1 | 2500 | 2940 | > 100000
10 | O=[N+]([O-])c1ccc(N2CCCN(C(=S)Nc3ccc(F)cc3Br)CC2)nc1 | 110 | 90.3 | > 100000
11 | CSc1ccc(Cl)c(Cl)c1 | 83.9 | 398 | 2350
12 | O=C(NC(CN1CCCC1)c1ccccc1)C1CCCCN1S(=O)(=O)c1ccccc1 (centres undefined) | 632 | 1260 | > 10000
13 | CCN(CC)CCN(Cc1cc2cc(OC)ccc2[nH]c1=O)C(=S)Nc1cccc(Cl)c1 | 1190 | 2190 | 23100
14 | CCCCOc1cccc(C(=O)N(Cc2cccs2)c2ccc(OC)cc2)c1 | 124 | 62.1 | 6130
15 | COc1ccc(C2=C(c3ccc(OC)cc3)C3(c4ccccc4)C(=O)C2(c2ccccc2)C2C(=O)N(c4ccc(C)c(Br)c4)C(=O)C23)cc1 (centres undefined) | 734 | 901 | > 10000
16 | Cn1c2ccncc2c2cc([N+](=O)[O-])ccc21 | 833 | 938 | 31400
17 | NC(=S)NN=C1c2ccccc2-c2nc3nonc3nc21 | 1130 | 582 | > 10000
18 | O=C(Nc1ccc(C2=NCCN2)cc1)c1ccc(-c2ccc(C(=O)Nc3ccc(C4=NCCN4)cc3)cc2)cc1 | 1320 | 364 | > 11700
19 | COCC(=O)N(C)CCCNc1ccnc2cc(Cl)ccc12 | 156 | 346 | > 10000
20 | Oc1ccc2ccccc2c1CNc1nc2ccccc2[nH]1 | 652 | 450 | 14300
21 | COc1ccc(OCCOCCN2CCN(C)CC2)cc1 | > 8080 | > 12500 | > 100000
22 | CC(C)(C)CC(C)(C)Nc1c(-c2ccccc2OC(=O)c2ccc(Cl)c(Cl)c2)nc2ccccn12 | 920 | 72.3 | > 10000
23 | CCOC(=O)c1c(CN2CCN(CC#N)CC2)n(Cc2ccccc2)c2cc(Br)c(O)cc12 | 1180 | 884 | > 100000

Row | Structure (SMILES) | EC50 (Plasmodium falciparum [1]) [nM] | EC50 (Plasmodium falciparum [2]) [nM] | CC50 [3] [nM]
24 | COc1cccc(-c2nc3c(OC)ccc(OC)c3cc2CNCC(C)(C)CN(C)C)c1 | 244 | 186 | > 10000
25 | CCCn1c(C(CC)N2CCNCC2)nc2ccccc2c1=O (centres undefined) | 285 | 637 | > 10000
26 | CCOC(=O)C1=C(CC)NC2=C(C(=O)CC(C)(C)C2)C1c1ccc(Cl)cc1Cl (centres undefined) | 208 | 45.9 | > 100000
27 | FC(F)(F)c1cccc(-c2cc(NCCCn3ccnc3)nc(-c3ccncc3)n2)c1 | 204 | 186 | > 7720
28 | Cc1cc(Nc2ccc(Cl)c(C)c2)n2nc(C)nc2n1 | 983 | 1000 | > 100000
29 | N=c1n(Cc2ccccc2)c2ccccc2n1CC(O)c1ccc(Br)cc1 (centres undefined) | 254 | 101 | 21800
30 | Cc1sc2ncnc(Nc3ccncc3)c2c1C | > 12500 | > 1450 | > 100000
31 | CCN1CCN(Cc2c(O)ccc3c(=O)c(Oc4ccccc4Br)c(C(F)(F)F)oc23)CC1 | 1390 | 377 | > 100000
32 | O=C1/C(=N\c2cccc(O)c2)C(N2CCCCC2)=C(O)c2ccccc21 | 212 | 227 | > 100000
33 | COc1ccc(-c2c[n+](CC(=O)c3cccc(OC)c3)c3n2CCC3)cc1 | 954 | 530 | > 100000
34 | O=C(NN=Cc1ccncc1)c1cc(-c2cccc([N+](=O)[O-])c2)[nH]n1 | > 8130 | 2120 | > 100000
35 | Cc1nc2c(C)cccc2c(O)c1CC=C(Cl)Cl | 1110 | 609 | > 100000
36 | COC(=O)C1=C(C)NC2=C(C(=O)CC(c3ccc(OC)c(OC)c3)C2)C1c1ccccc1Br (centres undefined) | 136 | 73.1 | > 100000
37 | CCOC(=O)c1cnc2ccc(C(C)C)cc2c1O | 1150 | 1140 | > 100000
38 | C=CCc1cc(C=c2sc3n(c2=O)C(c2ccccc2)C(C(=O)OCC)=C(C)N=3)cc(OC)c1O (centres undefined) | 2500 | 391 | > 100000
39 | COc1ccc(Nc2nc(Nc3ccc(OC)cc3)c3ccccc3n2)cc1 | 57.3 | 51.9 | 2100
40 | c1ccc(Nc2nc(NCC3CCCO3)c3ccccc3n2)cc1 (centres undefined) | 114 | 169 | > 10000
41 | CC1=C2C(=O)c3ccccc3C2NC(=O)N1 (centres undefined) | > 352 | > 12500 | > 100000
42 | CC(C)(C)NC(=O)C(c1ccncc1)N(Cc1ccccc1Cl)C(=O)c1ccc(-c2ccccc2)[nH]1 (centres undefined) | > 6470 | > 3990 | 67400
43 | COC(=O)COc1ccc(/C=C2\SC(=Nc3ccc(F)cc3)NC2=O)cc1 | > 757 | 1790 | > 10000
44 | CCCN(CC(=O)Nc1cc(C(C)(C)C)nn1-c1cccc(C)c1)C(=O)c1cccc([N+](=O)[O-])c1 | > 1630 | 1010 | > 10000
45 | CCCCCc1ccc(-c2cn3nc(CCCCC)sc3n2)cc1 | > 921 | > 1250 | > 10000
46 | CC(C)(C)C(/C=C/c1ccc(Cl)cc1Cl)n1nnnc1C1(Nc2ccc(Cl)cc2)CCCCC1 (centres undefined) | > 1250 | > 1050 | > 10000

Row | Structure (SMILES) | EC50 (Plasmodium falciparum [1]) [nM] | EC50 (Plasmodium falciparum [2]) [nM] | CC50 [3] [nM]
47 | CCOC(=O)N1CCC(NC(=O)CSCc2nc(-c3cccc(OC)c3)oc2C)CC1 | > 1250 | > 1080 | > 10000
48 | COc1ccc(NS(=O)(=O)c2cccc(C(=O)Nc3ccccc3[N+](=O)[O-])c2)cc1 | > 12500 | 4130 | 44400
49 | CCOCCCNC(=O)c1cc(NC(=O)c2ccc(Cl)c([N+](=O)[O-])c2)ccc1N1CCCCC1 | > 1250 | 77 | 1420
50 | O=C(NC1CC1)c1ccc(N2C(=O)C3C4c5ccccc5C(c5ccccc54)C3C2=O)cc1 (centres undefined) | > 872 | 1900 | > 10000
51 | O=C(C1CCCCN1)N1CC(c2ccccc2)c2ccccc2C1CN1CCCCC1 (centres undefined) | 439 | 257 | 4680
52 | O[C@@]1(c2cc3ccccc3s2)CN2CCC1CC2 | 177 | 101 | > 10000
53 | CCC(C)NC(=O)CN(c1cc(OC)ccc1OC)S(C)(=O)=O (centres undefined) | 438 | 349 | > 10000
54 | CN(CCCNc1ccnc2cc(Cl)ccc12)C(=O)/C=C/c1ccccc1 | 371 | 286 | > 10000
55 | CC1=C(C(=O)OC2CCCCC2)C(c2cccc([N+](=O)[O-])c2)C2=C(CCCC2=O)N1 (centres undefined) | 1640 | 1330 | 68400
56 | CC12CCC(CN(CC(O)Cn3c4ccc(Br)cc4c4cc(Br)ccc43)C1)C2(C)C (centres undefined) | 2960 | 2200 | > 100000
57 | COc1ccc(NC(=O)c2cc3cc(C4(O)CCN(CC(C)(C)C)CC4)ccc3o2)cc1OC | > 1250 | 480 | > 10000
58 | OC1(c2ccc(Br)cc2)CCN(C2CCN(Cc3ccccc3)CC2)CC1 | 183 | 433 | 9260
59 | COc1ccc(C2CC(=O)C3=C(C2)NC(C)=C(C(=O)OC2CCCC2)C3c2ccc([N+](=O)[O-])cc2)cc1OC (centres undefined) | 31 | 14.8 | > 100000
60 | CCCOC(=O)C1=C(C)NC2=C(C(=O)CC(c3ccc(OC)cc3)C2)C1c1ccc(Cl)cc1Cl (centres undefined) | 36.9 | 16.2 | > 100000
61 | O=C(CCC1CCCC1)NC1CCC(Nc2ccnc3cc(Cl)ccc23)CC1 (centres undefined) | 1010 | 875 | > 3890
62 | c1ccc(CSc2scnc2[P+](c2ccccc2)(c2ccccc2)c2ccccc2)cc1 | 335 | 563 | 3190
63 | CC(C)C1N=C2c3ccccc3N=C(SCC(=O)Nc3cc(C(F)(F)F)ccc3Cl)N2C1=O (centres undefined) | 5910 | > 12500 | > 100000
64 | CCOc1cc(Br)cc(/C=C2\NC(=S)NC2=O)c1O | > 1250 | > 973 | > 10000
65 | O=C(Nc1ccccc1C(F)(F)F)N1CCC(N2CCCCC2)CC1 | > 9510 | 1500 | > 100000
66 | COC(=O)c1c(C)oc2ccc(N(C(=O)c3ccc(C)cc3)S(=O)(=O)c3ccccc3)cc12 | > 1680 | 690 | > 10000
67 | CC(C)CN(CC(O)CN(CCN1CCOCC1)S(=O)(=O)Cc1ccccc1)C(=O)C1CCCN1C(=O)OC(C)(C)C (centres undefined) | > 1130 | > 1250 | > 10000
68 | CN(C)CCNC(=O)c1ccc(-c2cncc(NCc3ccc(Cl)c(Cl)c3)c2)cc1 | 640 | 284 | 10300
